Measurements taken from patent US8946197B2, “Transglutaminase TG2 inhibitors, pharmaceutical compositions, and methods of use thereof” (CHDI Foundation, Inc., priority 2009, dated 2015).
Several values for one entry are separate records, joined by “and”; a condition that tells them apart may be missing. Equal entries are not always repeated.

Biological target: T1, human TG2 (Homo sapiens, UniProt P21980)
T1 sequence (P21980 1-687): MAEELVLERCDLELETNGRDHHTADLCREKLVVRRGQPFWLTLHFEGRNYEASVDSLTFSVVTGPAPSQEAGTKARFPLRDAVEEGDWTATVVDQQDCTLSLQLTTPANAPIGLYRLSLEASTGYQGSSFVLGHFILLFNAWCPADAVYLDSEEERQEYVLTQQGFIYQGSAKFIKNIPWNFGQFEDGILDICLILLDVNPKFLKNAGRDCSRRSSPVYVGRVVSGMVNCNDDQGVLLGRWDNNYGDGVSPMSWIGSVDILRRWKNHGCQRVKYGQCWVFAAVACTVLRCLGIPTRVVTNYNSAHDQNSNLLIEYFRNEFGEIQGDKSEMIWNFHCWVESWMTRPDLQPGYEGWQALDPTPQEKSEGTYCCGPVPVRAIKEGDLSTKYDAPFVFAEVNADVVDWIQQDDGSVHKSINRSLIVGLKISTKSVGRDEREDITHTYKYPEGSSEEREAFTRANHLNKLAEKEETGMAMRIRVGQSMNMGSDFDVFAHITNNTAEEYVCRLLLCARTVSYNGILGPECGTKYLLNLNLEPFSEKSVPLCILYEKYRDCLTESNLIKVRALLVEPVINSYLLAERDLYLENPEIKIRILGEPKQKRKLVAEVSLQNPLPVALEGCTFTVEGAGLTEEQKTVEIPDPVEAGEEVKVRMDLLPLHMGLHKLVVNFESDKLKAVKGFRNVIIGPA
Experiment: fluorescent screening assay for human TG2
Type: biochemical
Settings: 20 nM TG2, 8 μM N,N-dimethylated Casein, 16 μM KxD, pH 7.4, 37° C
Experimental: (§1) The fluorescent screening assay for human TG2 was performed as described herein: Assay conditions were 20 nM TG2, 8 μM N,N-dimethylated Casein (NMC) and 16 μM K×D (used for all transglutaminase assays) in 25 mM Hepes, pH 7.4, 250 mM NaCl, 2 mM MgCl2, 0.5 mM CaCl2, 0.2 mM DTT, 0.05% Pluronic F-127 at 37° C. A time point was taken with a microplate reader (Safire or Ultra, Tecan; ex: 350 nm, em: 535 nm) every 3 minutes for up to 2 hours and the initial linear reaction progress was used to determine the reaction velocity as a measure for enzyme activity. Assay conditions were identical for human TG6 and similar for human TG1 and mouse TG2 apart from enzyme concentration (mTG2 at 5 nM; TG1 at 10 nM) and CaCl2 concentration (0.2 mM for mTG2; 0.05 mM for TG1). Factor XIIIa was activated using 0.1 μg/μl thrombin (Sigma) in 35 mM Tris pH 8.0 for 20 min at 30° C. and the transamidation reaction was performed with 20 nM Factor XIIIa in 50 mM Tris pH 8.0, 1.25 mM CaCl2, 0.05% Pluronic, 0.2 mM DTT. TG3 was activated with 0.02 μg/μl thrombin under the same conditions as Factor XIIIa and assay conditions were 10 nM TG3 in 50 mM Hepes, pH 8, 20 mM CaCl2, 0.2 mM DTT, 0.05% Pluronic F-127.
as §1, with “A” for “The”

Row | Compound | IC50
1 | C=CC(=O)Nc1ccc(S(=O)(=O)N2CCN(c3ncccn3)CC2)cc1 [N-[4-(4-Pyrimidin-2-yl-piperazine-1-sulfonyl)-phenyl]-acrylamide] | < 100 nM and 100 to 1000 nM
2 | C=CC(=O)Nc1ccc(S(=O)(=O)N2CCN(c3nccs3)CC2)cc1 [N-[4-(4-Thiazol-2-yl-piperazine-1-sulfonyl)-phenyl]-acrylamide] | 100 to 1000 nM and < 100 nM
3 | C=CC(=O)Nc1ccc(S(=O)(=O)N2CCN(c3ncnc4ccsc34)CC2)cc1 [N-[4-(4-Thieno[3,2-d]pyrimidin-4-yl-piperazine-1-sulfonyl)-phenyl]-acrylamide] | < 100 nM and 100 to 1000 nM
4 | C=CC(=O)Nc1ccc(S(=O)(=O)N2CCc3cc(S(=O)(=O)N(C)C)ccc32)cc1 [N-[4-(5-Dimethylsulfamoyl-2,3-dihydro-indole-1-sulfonyl)-phenyl]-acrylamide] | 100 to 1000 nM and < 100 nM
5 | C=CC(=O)Nc1ccc(S(=O)(=O)N2CCNCC2)cc1 [N-[4-(piperazine-1-sulfonyl)-phenyl]acrylamide] | 1000 to 25000 nM
6 | C=CC(=O)Nc1cccc(S(=O)(=O)N2CCN(CCCc3ccccc3)CC2)c1 [N-{3-[4-(3-Phenyl-propyl)-piperazine-1-sulfonyl]-phenyl}-acrylamide] | 1000 to 25000 nM
7 | C=CC(=O)Nc1cccc(S(=O)(=O)N2CCN(CCCCc3ccccc3)CC2)c1 [N-{3-[4-(4-Phenyl-butyl)-piperazine-1-sulfonyl]-phenyl}-acrylamide] | 1000 to 25000 nM
8 | C=CC(=O)Nc1ccc(S(=O)(=O)N2CCCC2c2ccc(C(F)(F)F)cc2)cc1 (centres unmarked) [N-{4-[2-(4-Trifluoromethyl-phenyl)-pyrrolidine-1-sulfonyl]-phenyl}-acrylamide] | 1000 to 25000 nM
9 | C=CC(=O)Nc1ccc(S(=O)(=O)N2CCNC(c3ccc(C)o3)C2)cc1 (centres unmarked) [N-{4-[3-(5-Methyl-furan-2-yl)-piperazine-1-sulfonyl]-phenyl}-acrylamide] | 1000 to 25000 nM
10 | C=CC(=O)Nc1ccc(S(=O)(=O)N2CCN(C(=O)N3C[C@@H](C)O[C@@H](C)C3)CC2)cc1 [N-{4-[4-(2,6-Dimethyl-morpholine-4-carbonyl)-piperazine-1-sulfonyl]-phenyl}-acrylamide] | 100 to 1000 nM and < 100 nM
11 | C=CC(=O)Nc1ccc(S(=O)(=O)N2CCN(c3ccnc(Cl)n3)CC2)cc1 [N-{4-[4-(2-Chloro-pyrimidin-4-yl)-piperazine-1-sulfonyl]-phenyl}-acrylamide] | < 100 nM and 100 to 1000 nM
12 | C=CC(=O)Nc1ccc(S(=O)(=O)N2CCN(c3cccc4nc(C)ccc34)CC2)cc1 [N-{4-[4-(2-Methyl-quinolin-5-yl)-piperazine-1-sulfonyl]-phenyl}-acrylamide] | < 100 nM and 100 to 1000 nM
13 | C=CC(=O)Nc1ccc(S(=O)(=O)N2CCN(C(=O)Cc3ccc4ccccc4c3)CC2)cc1 [N-{4-[4-(2-Naphthalen-2-yl-acetyl)-piperazine-1-sulfonyl]-phenyl}-acrylamide] | 100 to 1000 nM and < 100 nM
14 | C=CC(=O)Nc1ccc(S(=O)(=O)N2CCN(C(=O)C3CC3c3ccccc3)CC2)cc1 (centres unmarked) [N-{4-[4-(2-Phenyl-cyclopropanecarbonyl)-piperazine-1-sulfonyl]-phenyl}-acrylamide] | 100 to 1000 nM and < 100 nM
15 | C=CC(=O)Nc1ccc(S(=O)(=O)N2CCN(c3ncccc3C)CC2)cc1 [N-{4-[4-(3-Methyl-pyridin-2-yl)-piperazine-1-sulfonyl]-phenyl}-acrylamide] | 100 to 1000 nM and < 100 nM
16 | C=CC(=O)Nc1ccc(S(=O)(=O)N2CCN(C(=O)CCc3ccccn3)CC2)cc1 [N-{4-[4-(3-Pyridin-2-yl-propionyl)-piperazine-1-sulfonyl]-phenyl}-acrylamide] | 100 to 1000 nM and < 100 nM

Row | Compound | IC50
17 | C=CC(=O)Nc1ccc(S(=O)(=O)N2CCN(c3ncccc3C(F)(F)F)CC2)cc1 [N-{4-[4-(3-Trifluoromethyl-pyridin-2-yl)-piperazine-1-sulfonyl]-phenyl}-acrylamide] | 100 to 1000 nM and < 100 nM
18 | C=CC(=O)Nc1ccc(S(=O)(=O)N2CCN(C(=O)N3CCC(F)(F)CC3)CC2)cc1 [N-{4-[4-(4,4-Difluoro-piperidine-1-carbonyl)-piperazine-1-sulfonyl]-phenyl}-acrylamide] | 100 to 1000 nM and < 100 nM
19 | C=CC(=O)Nc1ccc(S(=O)(=O)N2CCN(c3nc(C)cc(C)n3)CC2)cc1 [N-{4-[4-(4,6-Dimethyl-pyrimidin-2-yl)-piperazine-1-sulfonyl]-phenyl}-acrylamide] | < 100 nM and 100 to 1000 nM
20 | C=CC(=O)Nc1ccc(S(=O)(=O)N2CCN(c3nccc(OC)n3)CC2)cc1 [N-{4-[4-(4-Methoxy-pyrimidin-2-yl)-piperazine-1-sulfonyl]-phenyl}-acrylamide] | < 100 nM and 100 to 1000 nM
21 | C=CC(=O)Nc1ccc(S(=O)(=O)N2CCN(c3cc(C)ccn3)CC2)cc1 [N-{4-[4-(4-Methyl-pyridin-2-yl)-piperazine-1-sulfonyl]-phenyl}-acrylamide] | < 100 nM and 100 to 1000 nM
22 | C=CC(=O)Nc1ccc(S(=O)(=O)N2CCN(c3nccc(C(F)(F)F)n3)CC2)cc1 [N-{4-[4-(4-Trifluoromethyl-pyrimidin-2-yl)-piperazine-1-sulfonyl]-phenyl}-acrylamide] | < 100 nM and 100 to 1000 nM
23 | C=CC(=O)Nc1ccc(S(=O)(=O)N2CCN(c3ccc(Cl)cn3)CC2)cc1 [N-{4-[4-(5-Chloro-pyridin-2-yl)-piperazine-1-sulfonyl]-phenyl}-acrylamide] | < 100 nM and 100 to 1000 nM
24 | C=CC(=O)Nc1ccc(S(=O)(=O)N2CCN(c3ccc(C)cn3)CC2)cc1 [N-{4-[4-(5-Methyl-pyridin-2-yl)-piperazine-1-sulfonyl]-phenyl}-acrylamide] | < 100 nM and 100 to 1000 nM
25 | C=CC(=O)Nc1ccc(S(=O)(=O)N2CCN(c3cccc(C)n3)CC2)cc1 [N-{4-[4-(6-Methyl-pyridin-2-yl)-piperazine-1-sulfonyl]-phenyl}-acrylamide] | 100 to 1000 nM and < 100 nM
26 | C=CC(=O)Nc1ccc(S(=O)(=O)N2CCN(C(=O)C34CC5CC(CC(C5)C3)C4)CC2)c(F)c1 [N-{4-[4-(Adamantane-1-carbonyl)-piperazine-1-sulfonyl]-3-fluoro-phenyl}-acrylamide] | 100 to 1000 nM and < 100 nM
27 | C=CC(=O)Nc1ccc(S(=O)(=O)N2CCN(C(=O)C34CC5CC(CC(C5)C3)C4)CC2)cc1 [N-{4-[4-(Adamantane-1-carbonyl)-piperazine-1-sulfonyl]-phenyl}-acrylamide] | 100 to 1000 nM and < 100 nM
28 | C=CC(=O)Nc1ccc(S(=O)(=O)N2CCN(C(=O)N3CCC4CCCCC4C3)CC2)cc1 (centres unmarked) [N-{4-[4-(Octahydro-isoquinoline-2-carbonyl)-piperazine-1-sulfonyl]-phenyl}-acrylamide] | 100 to 1000 nM and < 100 nM
29 | C=CC(=O)Nc1ccc(S(=O)(=O)N2CCN(C(=O)N3CCCC4CCCCC43)CC2)cc1 (centres unmarked) [N-{4-[4-(Octahydro-quinoline-1-carbonyl)-piperazine-1-sulfonyl]-phenyl}-acrylamide] | 100 to 1000 nM and < 100 nM
30 | C=CC(=O)Nc1ccc(S(=O)(=O)N2CCN(C(=O)N3CCCCC3)CC2)cc1 [N-{4-[4-(Piperidine-1-carbonyl)-piperazine-1-sulfonyl]-phenyl}-acrylamide] | 100 to 1000 nM and < 100 nM
31 | C=CC(=O)Nc1ccc(S(=O)(=O)N2CCC(C(=O)N3CCCCC3)CC2)cc1 [N-{4-[4-(Piperidine-1-carbonyl)-piperidine-1-sulfonyl]-phenyl}-acrylamide] | 100 to 1000 nM and < 100 nM
32 | C=CC(=O)Nc1ccc(S(=O)(=O)N2CCN(C(=O)N3CCCC3)CC2)cc1 [N-{4-[4-(Pyrrolidine-1-carbonyl)-piperazine-1-sulfonyl]-phenyl}-acrylamide] | 100 to 1000 nM and < 100 nM
